Results on seven molecules are retold here after ChEMBL document CHEMBL1201862, “PubChem BioAssay data set” (2004).

The target of assay [1] is T1, CAAX prenyl protease 2 (Saccharomyces cerevisiae S288c, UniProt Q03530).
T1 sequence (Q03530 whole entry): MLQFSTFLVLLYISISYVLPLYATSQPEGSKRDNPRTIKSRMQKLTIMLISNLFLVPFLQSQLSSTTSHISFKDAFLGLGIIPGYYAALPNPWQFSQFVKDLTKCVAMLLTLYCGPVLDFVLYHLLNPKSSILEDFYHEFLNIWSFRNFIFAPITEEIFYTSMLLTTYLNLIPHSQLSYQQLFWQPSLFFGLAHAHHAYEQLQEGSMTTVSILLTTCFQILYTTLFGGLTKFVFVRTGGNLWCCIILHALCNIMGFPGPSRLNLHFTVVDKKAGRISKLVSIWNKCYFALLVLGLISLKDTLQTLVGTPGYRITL
It counts as biochemical.

Assay [2] is described as follows: HepG2 cell cytotoxicity, dose response, cytotoxicity control, ATP luminescence, cherry-pick, set 6 (AID 1053125). It counts as functional, cell-based.
The nature of assay [3]: THP-1 cell cytotoxicity, dose response, cytotoxicity control for Vif-APOBEC3G degradation inhibitor project, THP-1 cells (AID 1117359). It counts as functional. Particulars: Human immunodeficiency virus 1, THP-1.
The nature of assay [4]: MC4R antagonists, dose response, counter-screen for LGR2 antagonist project, cell-based, plate reader, cherry pick (AID 743444).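 Note: transfected HEK 293 cells stimulated with alpha-MSH peptide; potency of inhibitors of the alpha-MSH evoked signal.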 The format is functional. A general note: Counterscreens check selectivity or assay interference.
A short description of assay [5]: A549 cell cytotoxicity, dose response, cytotoxicity control, plate reader, cherry-pick, antagonist series (AID 743412). The format is functional, cell-based.
The nature of assay [6]: LGR2 antagonists, dose response, cell-based, HEK293, CRE-luciferase reporter, cherry pick, set 2 (AID 743343).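 Note: transfected cells were stimulated with diluted bursicon conditioned medium after compound addition.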 The format is functional. Background: A reporter such as luciferase makes a cellular process visible.
A short description of assay [7]: HEK293 cell cytotoxicity, dose response, cytotoxicity control, plate reader, cherry-picked samples (AID 743446). The format is functional, cell-based.
Assay [8] can be described thus: cells. Particulars: A549.
Assay [9] is described as follows: HEK293T cytotoxicity, dose response, cytotoxicity control for miR-122 modulator project, cell-based, activator set, cherry-pick (AID 720690).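 Note: HEK293T human cells scored for general mammalian cytotoxicity.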 The format is functional.
Assay [10] in a line: HepG2 cell cytotoxicity, dose response, cytotoxicity control, cherry-picked samples (AID 1159577). The format is functional, cell-based.
Assay [11] in a line: P. falciparum Dd2 growth inhibitors, dose response, SYBR Green, cherry-picked samples (AID 1159567). The format is functional, cell-based.
Assay [12] addresses Protein Tat (Human immunodeficiency virus type 1 group M subtype B (isolate HXB2)(HIV-1), UniProt P04608). The format is functional.
In assay [13] the test system is H4. The experiment in a line: Luminescence Cell-Based Dose Response HTS to Identify Activators of 5'UTR Stem-Loop Driven Prion Protein mRNA Translation in H4 Neuroglioblastoma Cells. [Related pubchem assays: 1829 (Project Summary), 1814 (Primary HTS)]. The format is functional. Particulars: Homo sapiens.
Assay [14] can be described thus: Luminescence Cell-Based Dose Confirmation HTS to Identify Activators of 5'UTR Stem-Loop Driven Alpha-Synuclein mRNA Translation in H4 Neuroglioblastoma Cells. [Related pubchem assays: 1829 (Project Summary), 1814 (Primary HTS)]. It counts as functional.
Assay [15] can be described thus: Luminescence Cell-Based Dose Response HTS to Identify Activators of Luciferase Translation or Activity in H4 […] Cells. [Related pubchem assays: 1829 (Project Summary), 1814 (Primary HTS)]. The format is functional.
Assay [16] has as its target T2, Oxysterols receptor LXR-beta (Homo sapiens, UniProt P55055).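 Note: agonist activity at LXR measured by a cell-based luminescence readout across a dose range, run as a counterscreen for daf-12 agonists; HEK293 cells with Gal4-LXR fusion and GAL4-driven luciferase reporter; potency for activation of Gal4-LXR reporter so compounds are agonists.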
T2 sequence (P55055 whole entry): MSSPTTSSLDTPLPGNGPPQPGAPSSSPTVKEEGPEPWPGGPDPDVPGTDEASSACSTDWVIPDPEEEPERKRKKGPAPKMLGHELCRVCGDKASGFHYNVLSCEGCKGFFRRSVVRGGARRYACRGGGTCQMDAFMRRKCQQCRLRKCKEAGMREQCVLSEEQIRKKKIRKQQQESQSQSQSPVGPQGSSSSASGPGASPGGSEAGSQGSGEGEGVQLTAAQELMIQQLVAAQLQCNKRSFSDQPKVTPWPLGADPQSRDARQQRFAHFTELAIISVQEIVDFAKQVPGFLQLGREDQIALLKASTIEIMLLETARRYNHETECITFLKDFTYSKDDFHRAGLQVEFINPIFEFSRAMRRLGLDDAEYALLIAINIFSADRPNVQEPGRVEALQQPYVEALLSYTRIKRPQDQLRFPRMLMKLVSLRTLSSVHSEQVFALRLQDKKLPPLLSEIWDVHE
It counts as functional, cell-based.

A short description of assay [17]: inhibitors of clade B AD8 Env fusion, dose response, cell-based, cherry-pick (AID 652062).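 Note: luciferase signal from cell-cell fusion driven by HIV-1 clade B AD8 Env; potency is for inhibitors of fusion seen as a drop in luminescence.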 The format is functional.
A short description of assay [18]: CEM21 lymphoblast cell cytotoxicity, dose response, cytotoxicity control for viral fusion inhibitor project, CellTiter-Glo luminescence, cherry-picked (AID 652042).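 Note: potency for signal decrease meaning cytotoxicity.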 It counts as functional, cell-based. (ATP-based viability assays read luminescence as a measure of living cells.)
Assay [19] deals with T3, COUP transcription factor 2 (Homo sapiens, UniProt P24468).
T3 sequence (P24468 whole entry): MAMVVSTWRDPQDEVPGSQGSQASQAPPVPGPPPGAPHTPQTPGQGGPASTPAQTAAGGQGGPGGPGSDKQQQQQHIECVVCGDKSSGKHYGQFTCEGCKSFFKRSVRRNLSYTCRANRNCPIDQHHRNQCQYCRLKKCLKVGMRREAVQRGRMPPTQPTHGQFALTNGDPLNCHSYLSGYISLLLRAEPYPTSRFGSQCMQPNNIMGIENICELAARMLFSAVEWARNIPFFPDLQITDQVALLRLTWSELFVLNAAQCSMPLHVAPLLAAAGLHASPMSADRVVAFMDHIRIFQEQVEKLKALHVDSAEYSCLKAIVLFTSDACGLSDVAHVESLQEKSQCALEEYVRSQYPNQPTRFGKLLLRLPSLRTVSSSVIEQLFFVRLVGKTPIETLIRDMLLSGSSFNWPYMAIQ
The experiment in a line: Luminescence-based cell-based high throughput dose response assay to identify inhibitors of COUP-TFII (NR2F2). It counts as functional.

A short description of assay [20]: ZM109 Env clade C HIV-1 fusion inhibitors, dose response, HeLa effector, CEM target cells, luciferase, cherry-pick (AID 652058). It counts as functional, cell-based.

Calls of active or inactive are those of the source.

Protein Tat, sequence (P04608 whole entry): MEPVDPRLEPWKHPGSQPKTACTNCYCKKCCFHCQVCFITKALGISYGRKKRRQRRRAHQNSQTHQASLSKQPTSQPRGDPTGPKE

For orientation: AC50 means the concentration giving half of the maximal activity seen. On to `CCOC(=O)c1cc2c(=O)n3cccc(C)c3nc2n(CC(C)C)/c1=N/C(=O)c1ccco1`, for which the half-maximal activity concentration (AC50) was 14 µM (active) in assay [1] and > 52 µM (inactive) in assay [2].
One may read the CC50 as the concentration giving 50% cytotoxicity. As to `COc1ccc(Nc2ncc(F)c(N3CCOCC3)n2)cc1`, the CC50 in assay [3] was > 40 µM (active). Further, the AC50 in assay [4] is 10.2 µM (active); in assay [5], > 52 µM (inactive); in assay [6], 18 µM (active); in [7] it was > 52 µM (inactive).
In the case of `COc1ccc(C2CC(c3ccccc3)=NN2c2ccc(C(N)=O)cc2)cc1` (stereo not given), the AC50 in [8] was 39.1 µM (active).
In the case of `CN(C)CC(=O)N1CCCCN2[C@@H](CO)[C@@H](c3ccc(/C=C/c4ccccc4)cc3)[C@@H]2C1`, the AC50 was 23.6 µM (active) in [9], 8.82 µM (active) in assay [10] and 1.14 µM (active) in [11].
As a reminder, the IC50 is the concentration that inhibits the measured activity by half. Regarding `Cc1cc(C(=O)CSc2nnc(-c3ccccc3)n2Cc2ccc3c(c2)OCO3)c(C)n1C`, the IC50 in assay [12] is > 100 µM (active).
The EC50 is the concentration at which the effect is half-maximal. As to `CC1=CN2C(=N)/C(=C/c3ccco3)C(=O)N=C2S1`, the EC50 in [13] was 1.63 µM (active); in assay [14] it was 5.22 µM (active); in assay [15], 6.38 µM (active); in assay [16] it was > 67.5 µM (inactive).
On to `Cc1ccc(Cn2ncc3c(N4CCN(Cc5ccc(Cl)cc5)CC4)ncnc32)cc1`, for which the results for the AC50 in [17], in assay [18] and in [20] were 3.86 µM (active), 52 µM (active) and 0.606 µM (active), respectively. Moreover, the IC50 in assay [19] is 10.6 µM (inactive).
